This note sets out measurements from PMC11871066, “Structure-based discovery of hydrocarbon-stapled paxillin peptides that block FAK scaffolding in cancer” (Nature Communications, 2025).

For this series the following is noted: mouse, in vivo, ip.

Procedure: Cell permeability of peptide drugs was determined by fluorescence measurement of TAMRA-labeled peptides in 96-well plates and ClarioStar Plus plate reader using BMG ClarioStar MARS software (version 4.20). […] Percent uptake was calculated as background-subtracted fluorescence absorbed by cells/fluorescence of peptide in media-only wells, then made relative to TAMRA-Alkyne. Three biological replicates (n = 3) were performed per cell line per treatment group. Peptide proteolysis was measured using immobilized Trypsin-agarose resin (Thermo Fisher) and quantification by LC-MS. […] In vivo pharmacokinetics were performed by the UACC Analytical Chemistry Shared Resource. […] The mice were fed NIH-31 irradiated pellets (Tekland Premier, Madison, Wisconsin), and reverse osmosis water was freely available. […] The average plasma concentration versus time data were analyzed using PKSolver (version 2.0) by a noncompartmental approach.

For the compound `CCCCCCCCCCCCCC(=O)N[C@@H](CC(N)=O)C(=O)N[C@@H](CC(C)C)C(=O)N[C@]1(C)CCCCCCC=CCCC[C@@](C)(C(=O)N[C@@H](CCC(=O)O)C(=O)N[C@@H](CC(C)C)C(=O)N[C@@H](CC(N)=O)C(N)=O)NC(=O)[C@H](CC(C)C)NC(=O)[C@H](CC(C)C)NC(=O)[C@H](CCCNC(=N)N)NC(=O)[C@H](CC(=O)O)NC(=O)[C@H](CC(C)C)NC(=O)[C@H](CCC(=O)O)NC1=O` [compound 2012], the “Cmax, molar concentration” value was 48.5 µM and the plasma clearance amounted to 0.26 mL/min/kg.
